Here are results for 11 molecules from US10513522B2, “Azetidinyl phenyl, pyridyl or pyrazinyl carboxamide derivatives as JAK inhibitors” (Incyte Corporation, priority 2011, dated 2019).

The test has as its system human JAK1 (a.a. 837-1142). Briefly: In vitro JAK kinase assay (HTRF, phosphorylation of biotinylated peptide), JAK1. The test is classed as biochemical. To be noted: ratio of IC50 at 1 mM ATP. On the technique in general: Time-resolved FRET reads energy transfer from a long-lived donor to a nearby acceptor.
Description: The catalytic activity of JAK1, JAK2 or JAK3 was assayed by measuring the phosphorylation of a biotinylated peptide. The phosphorylated peptide was detected by homogenous time resolved fluorescence (HTRF). […] Reactions were carried out at room temperature for 1 hour and then stopped with 20 μL 45 mM EDTA, 300 nM SA-APC, 6 nM Eu-Py20 in assay buffer (Perkin Elmer, Boston, Mass.). Binding to the Europium labeled antibody took place for 40 minutes and HTRF signal was measured on a Fusion plate reader (Perkin Elmer, Boston, Mass.).
Take `C[C@H](NC(=O)c1cnc(N2CC(CC#N)(n3cc(-c4ncnc5[nH]ccc45)cn3)C2)cn1)C(F)(F)F` [Example 31, 5-{3-(Cyanomethyl)-3-[4-(7H-pyrrolo[2,3-d]pyrimidin-4-yl)-1H-pyrazol-1-yl]azetidin-1-yl}-N-[(1S)-2,2,2-trifluoro-1-methylethyl]pyrazine-2-carboxamide]: the JAK2/JAK1 result is recorded as “A (A means greater than or equal to 10)”. `N#CCC1(n2cc(-c3ncnc4[nH]ccc34)cn2)CN(c2cnc(C(=O)N[C@@H](C3CC3)C(F)(F)F)cn2)C1` [Example 32, 5-{3-(Cyanomethyl)-3-[4-(7H-pyrrolo[2,3-d]pyrimidin-4-yl)-1H-pyrazol-1-yl]azetidin-1-yl}-N-[(1S)-1-cyclopropyl-2,2,2-trifluoroethyl]pyrazine-2-carboxamide]: the JAK2/JAK1 result is recorded as “A (A means greater than or equal to 10)”. For `N#CCC1(n2cc(-c3ncnc4[nH]ccc34)cn2)CN(c2cnc(C(=O)NC3(C(F)(F)F)CC3)cn2)C1` [Example 33, 5-{3-(Cyanomethyl)-3-[4-(7H-pyrrolo[2,3-d]pyrimidin-4-yl)-1H-pyrazol-1-yl]azetidin-1-yl}-N-[1-(trifluoromethyl)cyclopropyl]pyrazine-2-carboxamide], the JAK2/JAK1 result is reported as “A (A means greater than or equal to 10)”.

Consider `C[C@H](NC(=O)c1cnc(N2CC(CC#N)(n3cc(-c4ccnc5[nH]ccc45)cn3)C2)cn1)C(F)(F)F` [Example 35, 5-{3-(Cyanomethyl)-3-[4-(1H-pyrrolo[2,3-b]pyridin-4-yl)-1H-pyrazol-1-yl]azetidin-1-yl}-N-[(1S)-2,2,2-trifluoro-1-methylethyl]pyrazine-2-carboxamide], for which the JAK2/JAK1 result was “A (A means greater than or equal to 10)”.

Turning to `N#CCC1(n2cc(-c3ccnc4[nH]ccc34)cn2)CN(c2cnc(C(=O)NCC(F)(F)F)cn2)C1` [Example 36, 5-{3-(Cyanomethyl)-3-[4-(1H-pyrrolo[2,3-b]pyridin-4-yl)-1H-pyrazol-1-yl]azetidin-1-yl}-N-(2,2,2-trifluoroethyl)pyrazine-2-carboxamide], the JAK2/JAK1 result was “A (A means greater than or equal to 10)”. For the molecule `N#CCC1(n2cc(-c3ncnc4[nH]ccc34)cn2)CN(c2cc(F)c(C(=O)NCC(F)F)cc2F)C1` [Example 37, 4-{3-(Cyanomethyl)-3-[4-(7H-pyrrolo[2,3-d]pyrimidin-4-yl)-1H-pyrazol-1-yl]azetidin-1-yl}-N-(2,2-difluoroethyl)-2,5-difluorobenzamide], the JAK2/JAK1 entry was “A (A means greater than or equal to 10)”. As for `N#CCC1(n2cc(-c3ncnc4[nH]ccc34)cn2)CN(c2ccc(C(=O)N[C@@H](C3CC3)C(F)(F)F)cc2)C1` [Example 38, 4-{3-(Cyanomethyl)-3-[4-(7H-pyrrolo[2,3-d]pyrimidin-4-yl)-1H-pyrazol-1-yl]azetidin-1-yl}-N-[(1S)-1-cyclopropyl-2,2,2-trifluoroethyl]benzamide], the entry is “A (A means greater than or equal to 10)”; as for `C[C@@H](NC(=O)c1ccc(N2CC(CC#N)(n3cc(-c4ncnc5[nH]ccc45)cn3)C2)cc1F)C1CC1` [Example 39, 4-{3-(Cyanomethyl)-3-[4-(7H-pyrrolo[2,3-d]pyrimidin-4-yl)-1H-pyrazol-1-yl]azetidin-1-yl}-N-[(1R)-1-cyclopropylethyl]-2-fluorobenzamide], “A (A means greater than or equal to 10)”; as for `N#CCC1(n2cc(-c3ccnc4[nH]ccc34)cn2)CN(c2ccc(C(=O)NC3(C(F)(F)F)CC3)nc2)C1` [Example 40, 5-{3-(Cyanomethyl)-3-[4-(1H-pyrrolo[2,3-b]pyridin-4-yl)-1H-pyrazol-1-yl]azetidin-1-yl}-N-[1-(trifluoromethyl)cyclopropyl]pyridine-2-carboxamide], “A (A means greater than or equal to 10)”. As for `C[C@H](NC(=O)c1cnc(N2CC(CC#N)(n3cc(-c4ccnc5[nH]ccc45)cn3)C2)cn1)C1CC1` [Example 41, 5-{3-(Cyanomethyl)-3-[4-(1H-pyrrolo[2,3-b]pyridin-4-yl)-1H-pyrazol-1-yl]azetidin-1-yl}-N-[(1S)-1-cyclopropylethyl]pyrazine-2-carboxamide], the entry is “A (A means greater than or equal to 10)”. As for `N#CCC1(n2cc(-c3ccnc4[nH]ccc34)cn2)CN(c2cnc(C(=O)N[C@@H](C3CC3)C(F)(F)F)cn2)C1` [Example 42, 5-{3-(Cyanomethyl)-3-[4-(1H-pyrrolo[2,3-b]pyridin-4-yl)-1H-pyrazol-1-yl]azetidin-1-yl}-N-[(1S)-1-cyclopropyl-2,2,2-trifluoroethyl]pyrazine-2-carboxamide], the entry is “A (A means greater than or equal to 10)”.
